Each compound was assayed against T1, Calpain-1 catalytic subunit (Homo sapiens) (UniProt P07384) (assay: Inhibitory activity against human recombinant Calpain 1 at a concentration of 10 uM).
T1 sequence (whole entry): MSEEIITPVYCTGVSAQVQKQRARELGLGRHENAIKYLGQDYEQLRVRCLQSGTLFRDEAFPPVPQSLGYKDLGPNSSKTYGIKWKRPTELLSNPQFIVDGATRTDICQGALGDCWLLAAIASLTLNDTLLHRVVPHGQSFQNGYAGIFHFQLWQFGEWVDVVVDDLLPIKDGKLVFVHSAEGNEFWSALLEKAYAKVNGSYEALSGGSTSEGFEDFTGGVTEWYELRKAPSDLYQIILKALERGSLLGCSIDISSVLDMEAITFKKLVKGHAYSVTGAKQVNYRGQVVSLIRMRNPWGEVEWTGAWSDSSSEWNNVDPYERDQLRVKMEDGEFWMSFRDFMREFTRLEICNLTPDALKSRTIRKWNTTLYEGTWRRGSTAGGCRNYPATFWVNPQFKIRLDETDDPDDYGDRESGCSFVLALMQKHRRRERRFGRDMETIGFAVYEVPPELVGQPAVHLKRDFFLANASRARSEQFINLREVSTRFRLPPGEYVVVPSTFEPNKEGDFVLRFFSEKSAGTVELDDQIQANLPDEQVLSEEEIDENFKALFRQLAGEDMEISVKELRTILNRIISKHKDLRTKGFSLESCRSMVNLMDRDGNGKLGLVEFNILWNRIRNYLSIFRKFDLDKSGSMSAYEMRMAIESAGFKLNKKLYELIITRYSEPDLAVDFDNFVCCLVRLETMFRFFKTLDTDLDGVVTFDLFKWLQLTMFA

| inhibition | Compound |
| --- | --- |
| 0% | CC(C)C[C@H](NC(=O)OCc1ccccc1)C(=O)N[C@@H](CC(C)C)C(=O)c1ncc[nH]1 |
| 11% | CC(C)C[C@H](NC(=O)OCc1ccccc1)C(=O)N[C@@H](CC(C)C)C(=O)C1N=NN=N1 |

Continued, compound first:

| Compound | inhibition |
| --- | --- |
| CC(C)C[C@H](NC(=O)OCc1ccccc1)C(=O)N[C@@H](CC(C)C)C(=O)c1nccn1Cc1ccccc1 | 39% |
| CC(C)C[C@H](NC(=O)OCc1ccccc1)C(=O)N[C@@H](CC(C)C)C(=O)c1nccn1COCC[Si](C)(C)C | 0% |
| CC(C)C[C@H](NC(=O)OCc1ccccc1)C(=O)N[C@@H](CC(C)C)C(=O)N[C@@H](Cc1ccccc1)C(=O)c1nccs1 | 54% |
| CC(C)C[C@H](NC(=O)OC(C)(C)C)C(=O)N[C@@H](CC(C)C)C(=O)c1ncc[nH]1 | 77% |

— ChEMBL document CHEMBL1151500, “Inhibition of calpain by peptidyl heterocycles” (Bioorg Med Chem Lett, 1996)
